Values belong to the compound of their own block, whether it stands above or below them.
What was measured:
[1] = Stability of trans-cyclooctene derivatives; format: physicochemical; conditions: PBS buffer, 20° C., in the dark, estimation
Procedure: 10 μL of a solution of the specific trans-cyclooctene derivative in dioxane (25 mM) was diluted with PBS buffer (3 mL), and this solution was stored at 20° C. in the dark. The faith of the TCO compound was monitored by HPLC-MS analysis, and an estimation of the half-life time was made.

[2] = Reactivity of trans-cyclooctene derivatives towards bis(2-pyridyl)-1,2,4,5-tetrazine, competition experiment; conditions: for reactivity towards tetrazines compared to minor isomer of trans-cyclooct-4-ene-1-ol: in words; for Reactivity ratio (R = k2,TCO/k2,Ref): reference trans-cyclooct-4-ene-1-ol (minor isomer)
Procedure: A competition experiment was performed to determine the reactivity ratio of a specific trans-cyclooctene derivative and trans-cyclooct-4-ene-1-ol (minor isomer) (that was chosen as the reference trans-cyclooctene), in the inverse-electron demand Diels-Alder reaction with bis(2-pyridyl)-1,2,4,5-tetrazine.
This mixture was diluted with water (0.45 mL). Subsequently, a solution of bis(2-pyridyl)-1,2,4,5-tetrazine (6.25*10^−8 mol) in a mixture of acetonitrile (0.05 mL) and water (0.45 mL) was slowly added while stirring vigorously. After addition, the mixture was stirred for an additional 5 min. The conversion of both trans-cyclooctene derivatives was determined by HPLC-MS/PDA analysis, and from these conversions, the reactivity ratio (R=k2,TCO/k2,Ref) of the specific trans-cyclooctene derivative was calculated using the mathematical procedure from Ingold and Shaw (J. Chem. Soc., 1927, 2918-2926).

[3] = Reactivity of tetrazines towards trans-cyclooct-4-ene-1-ol (minor isomer), competition experiment; conditions: reference 3-(5-acetamido-2-pyridyl)-6-(2-pyridyl)-1,2,4,5-tetrazine
Procedure: A competition experiment was performed to determine the reactivity ratio of a specific tetrazine and 3-(5-acetamido-2-pyridyl)-6-(2-pyridyl)-1,2,4,5-tetrazine (that was chosen as the reference tetrazine), in the inverse-electron demand Diels-Alder reaction with trans-cyclooct-4-ene-1-ol (minor isomer).
To acetonitrile (0.100 mL) was added 5 μL of a solution of the specific tetrazine in DMSO (25 mM) and 5 μL, of a solution of the reference tetrazine in DMSO (25 mM). This mixture was diluted with water (0.9 mL), and the absolute amounts of both tetrazines was determined by HPLC-MS/PDA analysis. Subsequently, a solution of trans-cyclooct-4-ene-1-ol (minor isomer) in DMSO (25 μL, 2.5 mM) was slowly added, and the mixture was stirred for 5 min. Again, the absolute amounts of both tetrazines was determined by HPLC-MS/PDA analysis, and conversions for both tetrazines was calculated. From these conversions, the reactivity ratio (R=k2,TCO/k2,Ref) of both tetrazines was calculated using the mathematical procedure from Ingold and Shaw (J. Chem. Soc., 1927, 2918-2926).

[4] = Hydrolytic stability tests of tetrazines; format: physicochemical; conditions: PBS buffer, 20° C.
[5] = Reaction of trans-cyclooctene β-lactam derivative with tetrazine; conditions: tetrazine suspension in water
Procedure: (§1) To a suspension of 3,6-diphenyl-1,2,4,5-tetrazine (6.25*10^−8 mol) in water (1 mL) was added the trans-cyclooctene β-lactam derivative 25 (6.25*10^−8 mol). […] This was confirmed by HPLC-MS analysis: complete disappearance of the tetrazine signal and formation of the rDA adduct with m/z=416.42 (M+H^+).

[6] = as above; conditions: equimolar (6.25*10^−8 mol) in water, immediate discoloration, HPLC-MS
Procedure: as §1, with “solution” for “suspension”, “3-(5-acetamido-2-pyridyl)-6-(2-pyridyl)-1,2,4,5-tetrazine” for “3,6-diphenyl-1,2,4,5-tetrazine”, “m/z=475.33” for “m/z=416.42”

[7] = as above; conditions: equimolar (6.25*10^−8 mol) in water, immediate discoloration, HPLC-MS; remark: listed apart in the source
Procedure: as §1, with “solution” for “suspension”, “3-(5-butyramido-2-pyridyl)-6-(2-pyrimidyl)-1,2,4,5-tetrazine” for “3,6-diphenyl-1,2,4,5-tetrazine”, “m/z=504.42” for “m/z=416.42”

[8] = as above; conditions: equimolar (6.25*10^−8 mol) in water, immediate discoloration, HPLC-MS; remark: listed apart in the source
Procedure: as §1, with “solution” for “suspension”, “(4-(1,2,4,5-tetrazin-3-yl)phenyl)methanamine” for “3,6-diphenyl-1,2,4,5-tetrazine”, “m/z=369.17” for “m/z=416.42”

[9] = as above; conditions: equimolar (6.25*10^−8 mol) in water, immediate discoloration, HPLC-MS; remark: listed apart in the source

SMILES: O=C1N[C@H]2CC/C=C/CC[C@H]2N1 [compound 40, Cis (E)-3,3a,4,5,9,9a-hexahydro-1H-cycloocta[d]imidazol-2(8H)-one]
half-life at 83 µM [1]: > 72 h
reactivity towards tetrazines compared to minor isomer of trans-cyclooct-4-ene-1-ol [2]: markedly increased reactivity
Reactivity ratio (R = k2,TCO/k2,Ref) [2]: 7.3

SMILES: c1cnc(-c2nnc(-c3ncccn3)nn2)nc1
Reactivity ratio (R = k2,TZ/k2,Ref) [3]: 0.12
half-life at 83 µM [4]: 4.5 h

SMILES: O=C(O)C1C2CC/C=C/CCC21 (stereo not drawn) [compound 5, (E-exo)-Bicyclo[6.1.0]non-4-ene-9-carboxylic acid]
reactivity towards tetrazines compared to minor isomer of trans-cyclooct-4-ene-1-ol [2]: markedly increased reactivity
Reactivity ratio (R = k2,TCO/k2,Ref) ([2]; listed as drawing 43): 20.0

More lines, main results first:

half-life at 83 µM [1]: ~24 h
SMILES: O=C(O)CN1C(=O)C2CC/C=C/CCC21 (stereo not shown) [compound 25, (E)-2-(10-oxo-9-azabicyclo[6.2.0]dec-4-en-9-yl)acetic acid]
reaction with tetrazine ([5]; equimolar (6.25*10^−8 mol), HPLC-MS): quantitative reaction
time until pink, turbid mixture became clear and colorless [5]: ≤ 15 min
reactivity towards tetrazines compared to minor isomer of trans-cyclooct-4-ene-1-ol [2]: markedly increased reactivity
Reactivity ratio (R = k2,TCO/k2,Ref) [2]: 5.4
reaction with tetrazine [6]: quantitative reaction
reaction with tetrazine [7]: quantitative reaction
reaction with tetrazine [8]: quantitative reaction
reaction with tetrazine [9]: quantitative reaction

half-life at 83 µM [1]: > 72 h
SMILES: O=C(O)C1C2CC/C=C/CCC21 (stereo not drawn) [compound 4, (E-endo)-Bicyclo[6.1.0]non-4-ene-9-carboxylic acid]
reactivity towards tetrazines compared to minor isomer of trans-cyclooct-4-ene-1-ol [2]: markedly increased reactivity
Reactivity ratio (R = k2,TCO/k2,Ref) ([2]; listed as drawing 42): 13.1
